Assay results: publication PMC4048165, “Reaction Kinetics for the Biocatalytic Conversion of Phenazine-1-Carboxylic Acid to 2-Hydroxyphenazine” (PLoS ONE, 2014)

Biological target: T1, PhzO (Pseudomonas chlororaphis, UniProt E3UVD3)
T1 construct: full-length phzO (1476-bp PCR fragment, about 491 residues) in pET28a, 6-His tag, E. coli BL21, Ni-NTA purified
T1 sequence (E3UVD3 1-491): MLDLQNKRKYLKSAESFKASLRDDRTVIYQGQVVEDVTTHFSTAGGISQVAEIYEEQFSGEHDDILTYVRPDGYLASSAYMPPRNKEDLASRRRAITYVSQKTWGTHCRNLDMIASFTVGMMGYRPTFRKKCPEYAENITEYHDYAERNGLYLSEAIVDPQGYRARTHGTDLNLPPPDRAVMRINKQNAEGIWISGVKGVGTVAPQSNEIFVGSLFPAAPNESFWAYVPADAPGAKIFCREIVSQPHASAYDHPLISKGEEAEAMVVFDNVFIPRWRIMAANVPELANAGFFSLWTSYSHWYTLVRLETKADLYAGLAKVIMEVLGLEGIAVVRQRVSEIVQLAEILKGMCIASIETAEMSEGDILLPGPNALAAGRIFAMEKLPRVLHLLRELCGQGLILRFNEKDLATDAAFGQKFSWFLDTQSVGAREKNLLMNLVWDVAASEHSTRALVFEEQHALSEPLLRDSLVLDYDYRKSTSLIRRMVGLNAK
Test: HPLC detection of 2-OH-PCA and 2-OH-PHZ
Format: biochemical
Settings: NADP(H), 1 mM Fe3+, PCA 200 mg/L, 0.1 M Tris-HCl; results call the enzyme purified, methods describe crude E. coli extract

O=C(O)c1cccc2nc3ccccc3nc12 [PCA, phenazine-1-carboxylic acid]
HPLC detection of 2-OH-PCA and 2-OH-PHZ: PhzO was sufficient to hydroxylate PCA to produce 2-OH-PHZ in the presence of NADP(H)
